Results as given in patent US6653319B1, “Pharmaceutical formulation for poorly water soluble camptothecin analogues” (University of Kentucky Research Foundation, priority 2001, dated 2003).
Values after ≈ are worked out from the molar mass of the structure shown. “Also recorded” adds a separate entry of the source.

Key:
[1] = Solubilities of DB-67 in various solvent systems at 25° C. (excess drug, filtration, HPLC); format: physicochemical
Protocol: Solubilities of DB-67 or camptothecin in a given solvent system were determined by adding an amount of the drugs well in excess of its estimated solubility to 1-2 mL of the desired solvent in a 4-mL glass vial. The capped vial was rotated in a VWR2010 incubator set at 25° C. for a period of 3-15 days. The sample was then passed through a 0.45 μm filter, except for liposome or emulsion samples, which were passed through a 1.2 μm filter. The collected sample was weighed, diluted with methanol, and analyzed by HPLC. The HPLC system consisted of a Discovery C18 15 cm×4.6 mm column and a Discovery C18 2 cm×4.6 mm 5 μm guard column (Supelco), a Beckman 110B solvent delivery module, a Rheodyne M7125 injector with a […] (Rainin), a Waters M2487 Dual λ Absorbance detector set at 254 nm, an HP 3392A integrator, and a mobile phase of 25% and 41% (v/v) acetonitrile in 2% (w/v) triethylamine acetate for camptothecin and DB-67, respectively.
The solubility-pH profile for DB-67 in aqueous solution is presented in FIG. 2, where the curve is a […] using an equilibrium model for the base-catalyzed lactone-ring opening and ionization of substituents in DB-67 (10-OH and the —COOH when the lactone-ring is opened at a basic pH).

[2] = Solubility method to determine complex formation constant with SBE-CD; format: physicochemical
Protocol: (§1) To understand the complexation mechanisms behind this solubilization effect, a solubility method was employed to determine the formation constant between a camptothecin analogue and a cyclodextrin derivative. In the solubility experiment, the solution pH was controlled below 4.6 with a 30 mM citrate buffer.
(§2) In the limit of [CD]>>So, the relevant formation constants can be expressed as: […]
(§3) where So is the solubility in the absence of cyclodextrins, Kf^1:1 and Kf^1:2 are the 1:1 and 1:2 complex formation constants, and [CD] is concentration of cyclodextrin. A linear least-squares fit of the data for SBE-CD as shown in FIG. 3 yields the complex formation constant of Kf^1:1=8.5±0.2×10^3M^−1(r^2=0.999). […] The inability for SBE-CD to form 1:2 complexes with DB-67 apparently arises from the presence of an average of seven negatively charged sulfobutyl ether groups in a SBE-CD molecule preventing the approach of two SBE-CDs to each other to form 1:2 complexes. A least-squares fit of the data for HP-CD as shown in FIG. 3 according to Equation 1 yields the 1:1 and 1:2 complex formation constants of Kf^1:1=5.8±0.2×10^3M^−1 and […]±0.2 ×10^4M^−1(r^2=1.000).

[3] = Solubility method to determine complex formation constants with HP-CD; format: physicochemical
Protocol: as §1, §2, §3

[4] = Reaction kinetics of lactone-ring opening and closing (hydrolysis) in aqueous solution by HPLC; format: physicochemical
Protocol: The reaction kinetics for the E-ring opened and closed DB-67 were investigated in aqueous solutions at pH 7.4 and 4.0, respectively. The reactions were thermostated at 25±0.1° C. by a circulation water bath and initiated by adding 0.1 mL of reactants (Species I DB-67 in DMSO or Species II DB-67 in 2 mM NaOH; see FIG. 1) to a 30 mM phosphate or acetate buffer solution with an initial reactant concentration of 2-4×10^−6 M. After the addition and at different time intervals, aliquots of the reaction solutions were withdrawn and immediately assayed by HPLC. The concentrations of both species I and II were monitored in order to evaluate the mass balance and other possible degradation products. Simultaneous non-linear least-squares fits of the kinetic profiles yield the first-order rate constants for the lactone-ring opening and closing processes of kopen=1.1±0.1×10^−4 s^−1 and kclose=3.3±0.3×10^−4 s^−1.
We have also investigated the hydrolysis processes for the lactone-ring intact DB-67 (Species I) at pH 7.4 in the presence of 20% (w/v) SBE-CD and HP-CD, respectively. […] The fitted rate constants are kopen=(7.1±0.1)×10^−5s^−1 and kopen=(6.2±0.1)×10^−5s^−1 for 20% (w/v) SBE-CD and HP-CD, respectively. As noted above, the presence of 20% (w/v) SBE-CD or HP-CD reduces the rate for the lactone-ring opening process by 1.6- and 1.8-fold, respectively. The rate reduction is therefore more marked in the presence of HP-CD.

[5] = format: physicochemical
Protocol: A successful pharmaceutical formulation with a supersaturated drug concentration requires a physical stability with respect to drug precipitation. In our first attempt, 20-25 mg/mL of DB-67 was loaded in DMSO because of the drug's high solubility in this solvent. The dissolved DB-67 was then added slowly to a 20% (w/v) SBE-CD aqueous solution by a volume ratio of 1:9 to achieve a final drug concentration of 2 mg/mL. The dilution rate was maintained at 0.10 mL/min. […] A proper control of the release pattern (local or uniform) and rate of DB-67 into the dilution medium is therefore critical to the success of this type of formulation approach.
As described above, a slow and uniform release of DB-67 into a dilution medium may be accomplished by employing a chemical approach, namely by converting the E-ring opened DB-67 (Species II, see FIG. 1), which is highly water-soluble, to the neutral E-ring closed DB-67 (Species I) in a controlled fashion. […] Accordingly, 20 mg/mL of DB-67 was loaded in a sodium hydroxide solution with NaOH concentration maintained at twice that of the drug concentration. The prepared DB-67 alkaline aqueous solution was passed through a 0.2 μm filter before it was added slowly (0.11 mL/min) into 20% (w/v) acidic SBE-CD solution by a volume ratio of 1:9. In order to completely neutralize DB-67, HCl was present in the dilution solution in an amount equal to the amount of NaOH in the DB-67 alkaline solution. A small amount of acetate buffer (5 mM) was also included in the dilution medium to control the solution pH to about 4 in order to facilitate a timely conversion from the E-ring opened DB-67 to its E-ring closed counterpart.
Shortly after the lyophilization, the lyophilized sample was reconstituted and the stability of the reconstituted solution was examined following the same procedure as described above.
The precipitation profiles of DB-67 solutions containing other solubilizing agents such as liposomes and an acidic aqueous cosolvent solution comprising an equal volume mixture of ethanol and cremophor, prepared as described in Examples 3 and 4, respectively, were evaluated.

[6] = compared with FDA approved camptothecin analogs (Camptosar and Hycamtin); cited from earlier work
[7] = HP-CD, E-ring closed DB-67, pH below 4.6, 30 mM citrate buffer, fit to Equation 1

Structure (SMILES): CC[C@@]1(O)C(=O)OCc2c1cc1n(c2=O)Cc2c-1nc1ccc(O)cc1c2[Si](C)(C)C(C)(C)C [DB-67, 7-t-butyldimethylsilyl-10-hydroxycamptothecin]
- S (solubility) ([1]; 5% Cremophor, 5% (v/v) in 5% (w/v) Dextrose/Water, 25° C., single sample): 200 µg/mL
- S (solubility) ([1]; 10% (v/v) PEG-400/water, 25° C.): (3.3 ± 0.5) × 10^−2 mg/mL
- S (solubility) ([1]; 40% (w/v) HPCD/water, 25° C.): (4.9 ± 0.2) × 10^−1 mg/mL
- S (solubility) ([1]; 40% (w/v) SBE-CD/water/1 mM HCl, 25° C.): (2.09 ± 0.04) × 10^−1 mg/mL
- S (solubility) ([1]; 40% PG, 10% (v/v) EtOH/water, 25° C.): (1.73 ± 0.04) × 10^−1 mg/mL
- S (solubility) ([1]; 50% (v/v) PEG-400/water, 25° C.): (2.0 ± 0.3) × 10^−1 mg/mL
- S (solubility) ([1]; 50% Cremophor, 50% (v/v) EtOH (Diluent-12), 25° C.): (7.5 ± 0.2) × 10^0 mg/mL
- S (solubility) ([1]; Emulsion (20% soybean oil, 2% glycerin, 73% water, 4% Tween80, 1% eggPC), 25° C.): (2.06 ± 0.05) × 10^−1 mg/mL
- S (solubility) ([1]; Liposome (70:25:5 (mole) DMPC:Chol:DMPG), 25° C.): (7.4 ± 0.3) × 10^−3 mg/mL
- S (solubility) ([1]; Water/30 mM acetate buffer at pH 5.23, 25° C.): (1.11 ± 0.00) × 10^−5 mg/mL
- S (solubility) ([1]; Water/0.5 M carbonate buffer at pH 10.20, 25° C., single sample): 178 µg/mL
- solubility in an aqueous solution of acidic pH ([1]; pH 5.2, DB-67 mostly in E-ring intact form): 0.11 μg/mL
- solubility in an aqueous solution ([1]; pH >10.2, mostly lactone-ring opened form): ~18000 µg/mL (≈ 37.6 mM)
- DB-67 bound to SBE-CD ([2]; 20% (w/v) SBE-CD, predominantly 1:1 complexes): more than 99.8%
- 1:1 complex formation constant Kf^1:1 ([2]; SBE-CD, neutral E-ring intact DB-67, pH below 4.6, 30 mM citrate buffer, linear fit r^2=0.999): 8.5±0.2×10^3 M^−1
- DB-67 included in the CD hydrophobic cavity ([3]; 20% (w/v) HP-CD): more than 99.9%
- complexes in the form of 1:2 complexes ([3]; 20% (w/v) HP-CD): roughly 46%
- 1:1 complex formation constant Kf^1:1 [3, 7]: 5.8±0.2×10^3 M^−1
- 1:2 complex formation constant (printed as Kf^1:1) [3, 7]: 3.8±0.2 ×10^4 M^−1
- reduction in the observed rate constant ([4]; 20% (w/v) HP-CD, pH 7.4): approximately 44%
- reduction of the rate for the lactone-ring opening process ([4]; 20% (w/v) HP-CD, pH 7.4): 1.8 fold
- reduction of the rate for the lactone-ring opening process ([4]; 20% (w/v) SBE-CD, pH 7.4): 1.6 fold
- first-order rate constant for lactone-ring closing kclose ([4]; pH 4.0, 30 mM buffer, 25° C., no cyclodextrin): 3.3±0.3×10^−4 s^−1
- first-order rate constant for lactone-ring opening kopen ([4]; pH 7.4, 30 mM buffer, 25° C., no cyclodextrin): 1.1±0.1×10^−4 s^−1
- rate constant kopen ([4]; pH 7.4, in the presence of 20% (w/v) HP-CD): (6.2±0.1)×10^−5 s^−1
- rate constant kopen ([4]; pH 7.4, in the presence of 20% (w/v) SBE-CD): (7.1±0.1)×10^−5 s^−1
- overall DB-67 concentration in the solution over time ([5]; 2 mg/mL DB-67, 1:9 dilution of alkaline solution into 20% (w/v) acidic SBE-CD, pH 4.4): remained constant over an extended period of three days
- time for conversion to E-ring closed DB-67 to be nearly complete ([5]; 20% (w/v) SBE-CD, measured solution pH 4.4): ≤ 100 min
- precipitation on mechanical mixing of DB-67 in DMSO with 20% (w/v) SBE-CD ([5]; lactone-intact DB-67 in DMSO diluted into 20% (w/v) SBE-CD aqueous solution, final concentration >1 mg/mL (2 mg/mL, 1:9, 0.10 mL/min)): precipitation occurs immediately; also recorded: precipitation occurred even during the mixing process and continued after the finish of mixing
- loss of DB-67 during the preparation process ([5]; stable solutions prepared by the present method): < 2%
- potency in in vitro cytotoxicity assays [6]: comparable potency to other FDA approved camptothecin analogs
